Measurements from PubChem BioAssay AID1996.
≈ marks a conversion by molar mass, not a printed value.

Details: buffer; pH 7.4; 200.0 µM

SMILES | solubility kinetic [µg/mL]
COc1cccc(C(C)NC(=O)c2ccncc2)c1 (centres undefined) | > 38.4
O=C(c1cc2cc(Cl)ccc2[nH]1)N1CCN(c2ccccc2F)CC1 | < 0.3
Cc1ccc2nc(SC(C)C(=O)N3CC(C)OC(C)C3)[nH]c2c1 (centres undefined) | 49.4 (≈ 148 µM)
CC(=O)Nc1cccc(NC(=S)Nc2cccc(Cl)c2C)c1 | 44.9 (≈ 134 µM)
O=C(CCc1ccccc1)NC(=S)NCc1ccco1 | 2.7 (≈ 9.36 µM)
O=C(NCCc1csc(-c2cccnc2)n1)c1cccc(Cl)c1 | > 51.6
CCOc1ccccc1NC1=NC2CS(=O)(=O)CC2S1 (centres undefined) | > 46.9
Cn1c(C(=O)O)cc2cc(Oc3ccccc3)ccc21 | 36 (≈ 135 µM)
CC(=O)Nc1ccc(C(=O)NC2CCSc3ccccc32)cc1 (centres undefined) | 16.6 (≈ 50.9 µM)
Cc1cccc(N)c1-c1c(C)cccc1N | > 31.8
COc1ccc(C2NC(=S)NC3=C2N2CCC3CC2)cc1 (centres undefined) | > 45.2
O=C(CSc1cccc[n+]1[O-])N1CCc2ccccc21 | > 43
Cc1cccc(N2CCN(Cc3cnc(Cl)s3)CC2C)c1 (centres undefined) | 23.4 (≈ 72.7 µM)
Cc1ccccc1C(=O)NCCOc1ccccc1Cl | 40.4 (≈ 139 µM)
Cc1nc2ccsc2c(=O)n1-c1cccc(Cl)c1 | > 41.5
COc1cccc(Nc2nc(N)nc(CCl)n2)c1 | > 39.9
Cc1cc(C(=O)Nc2ccc(F)cc2C)cs1 | 24.4 (≈ 97.9 µM)
CC1=NOC(=O)/C1=C\c1ccc(-c2ccc(Cl)c(C(=O)O)c2)o1 | > 49.8
O=C(COc1ccc([N+](=O)[O-])cc1Cl)NCCN1C(=O)CSC1=O | > 56.1
CCn1c(C)cc(C(=O)COC(=O)c2cccnc2SC)c1C | 3.7 (≈ 11.1 µM)
Cc1ccc(NC(=O)CN2C(=O)N/C(=C\c3cccnc3)C2=O)cc1 | 5.2 (≈ 15.5 µM)
Cc1cc(S(=O)(=O)Nc2ccc(C(=O)NCC3CCCO3)cc2)ccc1F (centres undefined) | 1 (≈ 2.55 µM)
CSc1nc2nc3c(cc2c(=O)n1-c1cccc(C)c1)COC(C)(C)C3 | 2.6 (≈ 7.08 µM)
Cc1cccc(C(=O)OCC(=O)NCc2ccco2)c1 | > 41

SMILES | solubility kinetic [µg/mL]
O=[N+]([O-])c1ccc(C2CCCC/C2=N/O)c([N+](=O)[O-])c1 (centres undefined) | 8.8 (≈ 31.5 µM)
O=C1CSC(=S)N1c1cccc(O)c1 | 29 (≈ 129 µM)
COc1ccc(NS(=O)(=O)c2ccc3c(c2)OCCO3)cc1OC | > 52.7
O=C(O)C1CCCN(S(=O)(=O)c2ccccc2[N+](=O)[O-])C1 (centres undefined) | 36.5 (≈ 116 µM)
CCCc1ccc(OCc2ccc(C(=O)N3CCCC3)o2)cc1 | 5.9 (≈ 18.8 µM)
O=C(O)CSc1nnc(-c2cccc(S(=O)(=O)N3CCOCC3)c2)n1-c1ccc(F)cc1 | > 71.8
C=CCn1c(=O)c(C(=O)NCc2ccc3c(c2)OCO3)c(O)c2ccccc21 | 1.3 (≈ 3.44 µM)
CCCN(CCC)S(=O)(=O)c1ccc(C(=O)O)cc1 | > 42.8
COc1ccccc1CNC(=O)COC(=O)c1cccs1 | 8.4 (≈ 27.5 µM)
Cc1ccc(C(=O)OCC(=O)N2C(C)CCCC2C)s1 (centres undefined) | 28.2 (≈ 95.5 µM)
O=C(COC(=O)c1ccc(F)c(S(=O)(=O)N2CCOCC2)c1)NCCc1ccc(F)cc1 | 17.5 (≈ 37.4 µM)
COc1ccc(/C=N/NC(=O)CNC(=O)c2ccncc2)cc1 | > 46.8
CN1CCN(C(=O)COc2ccc3ccccc3c2)CC1 | > 42.7
C[C@@H](C(=O)Nc1ccccc1N1CCOCC1)N1C(=O)C2CCCCC2C1=O (some centres undefined) | > 57.8
O=C(/C=C/c1ccc(Br)cc1)NCCCn1ccnc1 | 44.2 (≈ 132 µM)
CCN(CC)CC(=O)Nc1sc(C)c(C)c1C(=O)c1ccc(C)cc1 | 4.6 (≈ 12.8 µM)
COc1cccc(NC(=O)C(C)N2C(=O)c3ccccc3C2=O)c1 (centres undefined) | 27.3 (≈ 84.2 µM)
O=C(COC(=O)c1cc2ccccc2o1)NCc1ccco1 | 17 (≈ 56.8 µM)
Cc1ccccc1NC(=O)COC(=O)c1cc(C)n(C2CC2)c1C | 5.6 (≈ 17.2 µM)
CN(C)C1(CNC(=O)Nc2ccccc2)CCCCC1 | > 41.3
CCCCOc1ccc(C(=O)NN2CCOCC2)cc1 | > 41.8
N#C/C(=C\c1c(F)cccc1Cl)C(=O)NC1CC1 | > 39.7
CCC(C)(C)C(=O)Nc1cccc(Cl)c1C | > 36
CC(C)c1ccc(-n2ccnc2SCC(=O)O)cc1 | > 41.5

SMILES | solubility kinetic [µg/mL]
CN1CCN(C(=O)c2ccc(Cl)cc2)CC1 | > 35.8
CCc1cc2c3c(c1)C(C)CC(C)(C)N3C(=O)/C2=C1\SC(=O)NC1=O (centres undefined) | 1.1 (≈ 3.09 µM)
Cc1sc2ncnc(NS(=O)(=O)c3ccc(Cl)cc3)c2c1C | 47.8 (≈ 135 µM)
CC(=O)Oc1ccc(C(c2ccc(OC(C)=O)cc2)c2ccccn2)cc1 | > 54.2
COc1ccc2c(CC(=O)Nc3ccc(N4CCOCC4)cc3)coc2c1 | 5.4 (≈ 14.7 µM)
Cc1cccc(NC(=O)CN2C(=O)CSC2=O)c1 | > 39.6
COC(=O)c1cccc(-n2c(CCC(=O)O)ccc2-c2cccs2)c1 | > 53.3
O=C(c1ccoc1)N1CCCC(Nc2ccc(F)c(F)c2)C1 (centres undefined) | 44.5 (≈ 145 µM)
O=C(NCCOc1ccccc1)C1CCCCC1 | > 37.1
CCOc1ccc(NC(=S)NC23CC4CC(CC(C4)C2)C3)cc1 | < 0.4
O=S(=O)(c1ccc(F)cc1)N1CCCC1 | > 34.4
Cc1ccc(C(=O)NCCNC(=O)Cc2ccccc2)cn1 | > 44.6
O=C(NCCNC(=O)c1ccccc1Cl)c1ccco1 | 39.7 (≈ 136 µM)
O=C(Nc1cccc(S(=O)(=O)N2CCCCC2)c1)c1ccccn1 | 5.1 (≈ 14.8 µM)
Cc1ccc(C)c(C(=O)COC(=O)C(C)N2C(=O)C3C4CCC(C4)C3C2=O)c1 (centres undefined) | 42 (≈ 110 µM)
Cl.c1ccc(C2CNCCc3ccccc32)cc1 (centres undefined) | > 39
CCOc1ccc(C(=O)NCc2ccc3c(c2)OCO3)cc1OCC | 1.2 (≈ 3.49 µM)
O=S(=O)(c1ccc(Cl)nc1)N1CCC(Cc2ccccc2)CC1 | 2.5 (≈ 7.13 µM)
CC(C)(C)c1ccc(SCCc2ccncc2)cc1 | 6.5 (≈ 23.9 µM)
CCC(=O)c1ccc(OCC(=O)Nc2ccc(S(=O)(=O)Nc3cc(C)nc(C)n3)cc2)cc1 | > 70.3
Cc1ccc(C(=O)N2CC=C(c3ccccc3)CC2)o1 | 39.1 (≈ 146 µM)
CC(=O)N(c1ccccc1C)S(=O)(=O)c1ccc(Cl)cc1 | 34.3 (≈ 106 µM)
COc1ccc(C(=O)CNc2ccccc2Br)cc1 | 5.6 (≈ 17.5 µM)
Cn1c(CN2CCN(CCO)CC2)c(C#N)c2ccccc21 | > 44.8

SMILES | solubility kinetic [µg/mL]
N#CC1CCN(c2ncccc2[N+](=O)[O-])CC1 | > 34.8
CC(C)(C)OC(=O)NCCC(=O)N/N=C/c1cccc2cccnc12 | > 51.4
Cc1cc(C)c2c(ccc3cccc[n+]32)c1.[O-][Cl+3]([O-])([O-])[O-] | > 46.2
CC(Cl)C(=O)Nc1cc(C(C)(C)C)nn1-c1ccccc1 (centres undefined) | > 45.9
CCOc1cccc(C(=O)Nc2ccc3c(c2)OCCO3)c1 | 27.3 (≈ 91.2 µM)
CCOC(=O)C(=O)Nc1cc(C)on1 | > 29.7
Cc1c(C)n(CCc2ccccc2)c2ncnc(NCCCN(C)C)c12 | > 52.7
Cc1c(C(=O)NC2CC2)oc2ccccc12 | > 32.3
O=C(Cc1ccc(Br)cc1)NCCc1ccccc1 | 7.5 (≈ 23.6 µM)
COc1cc(CC(=O)NCC2CCCCC2)cc(OC)c1OC | 43.9 (≈ 137 µM)
COC(=O)c1ccc(CN2CCN(CC(C)C)C(CCO)C2)cc1 (centres undefined) | > 50.2
C/C(=N\NC(=O)c1cccnc1)c1ccccc1 | > 35.9
Cn1c(/C=C/c2cccc([N+](=O)[O-])c2)c([N+](=O)[O-])c(=O)n(C)c1=O | 48.6 (≈ 146 µM)
CC(NC(=O)C1CCN(C(=O)c2ccc(F)cc2)CC1)c1ccc(S(N)(=O)=O)cc1 (centres undefined) | > 65
COc1ccnc2c1c(=O)n(Cc1cccc(F)c1)c(=O)n2C | 37.9 (≈ 120 µM)
CC(NC(=O)c1ccc(C#N)cc1)C1CC2CCC1C2 (centres undefined) | > 40.3
Cc1ccsc1C(=O)OCC(=O)c1cc(C)n(C)c1C | 3.7 (≈ 12.7 µM)
O=C(O)C1CCN(C(=O)c2cc(F)cc3c2OCOC3)CC1 | > 46.4
C/C(Cl)=C/Cn1c(N2CCCC2)nc2c1c(=O)[nH]c(=O)n2C | 45 (≈ 139 µM)
COc1ccc(S(=O)(=O)N2CCCC2)cc1OC | 32.7 (≈ 121 µM)
C/C(=N/OC(=O)c1ccc(C)cc1)C(=O)c1ccc(Br)cc1 | 33.9 (≈ 94.1 µM)
Cc1cccc(N2CCN(C(=O)NC3CCCCC3)CC2)c1C | 0.7 (≈ 2.22 µM)
Cc1ccc(S(=O)(=O)NC(=O)c2ccccc2C)cc1 | > 43.4
Cc1ccc(N2C(=O)CC(NCC3CCCO3)C2=O)cc1 (centres undefined) | > 43.3

SMILES | solubility kinetic [µg/mL]
Cc1ccc(S(=O)(=O)NC(=O)NC(C)c2ccc(F)cc2)cc1 (centres undefined) | > 50.5
CC(=O)Nc1ccc(S(=O)(=O)NC2CC2)cc1 | 37.6 (≈ 148 µM)
Cc1c(Cl)cnc(NC(=O)COC(=O)C2CC2)c1Cl | > 45.5
Cc1ccc2c(COC(=O)c3c(C)noc3C)cc(=O)oc2c1 | 3.1 (≈ 9.89 µM)
CC(=O)c1cccc(NC(=O)NC(C)c2ccc3c(c2)OCO3)c1 (centres undefined) | 6.9 (≈ 21.1 µM)
CCN1CCN(C(=O)/C=C/c2cccc(Cl)c2)CC1 | 40 (≈ 143 µM)
CCCCNC(=S)Nc1ccc(F)cc1 | 30.1 (≈ 133 µM)
Cc1ccc2c(CC(=O)N3CCN(c4ccccc4)CC3)coc2c1 | 8.1 (≈ 24.2 µM)
COCCNC(=S)Nc1ccccc1[N+](=O)[O-] | > 38.3
CCOC(=O)N1CCN(CCC(=O)Nc2ccccc2)CC1 | 32.2 (≈ 105 µM)
CCc1sc(NC(=O)C(C)C)nc1-c1ccccc1 | 15.6 (≈ 56.9 µM)
Cc1cccc(C(=O)Oc2cc(C)[nH]c(=O)c2[N+](=O)[O-])c1 | > 43.2
O=C(COc1ccc(Cl)cc1)NCCc1ccccn1 | 37.2 (≈ 128 µM)
Cc1cc(C(=O)Nc2ncc(C)s2)c2ccccc2n1 | 18 (≈ 63.5 µM)
C=C(C)c1cccc(C(C)(C)NC(=O)Nc2nncs2)c1 | > 45.4
CCC(C)c1ccccc1NS(=O)(=O)c1cnn(CC)c1 (centres undefined) | > 46.1
O=C(Nc1ccc(F)cc1)C(NC1CCCCC1)c1ccccc1 (centres undefined) | 40.6 (≈ 124 µM)
CC(C)c1cc(=O)[nH]c(N2CCN(Cc3ccc4c(c3)OCO4)CC2)n1 | 49.9 (≈ 140 µM)
COc1ccc(C(=O)O/N=C(\N)c2ccccn2)c(OC)c1 | > 45.2
CCOCC(=O)OCC(=O)NC12CC3CC(CC(C3)C1)C2 | > 44.3
CCCCOc1ccc(C(=O)NCCc2cccs2)cc1 | 1.3 (≈ 4.28 µM)
CN(CC(=O)Nc1c(Cl)cccc1Cl)CC(=O)N(C)C1(C#N)CCCCC1 | > 61.7
CSc1cccc(NS(=O)(=O)c2cn(C)cn2)c1 | 14.2 (≈ 50.1 µM)
